Test results published in PubChem BioAssay (NCI).
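Abbreviation: GI50, concentration required for 50% inhibition of growth. At the TGI there is no net growth.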

Legend:
Assay in all cases: DTP human tumour cell line panel, 384-well format
UACC-62 melanoma = test system: UACC-62 melanoma
HOP-62 NSCLC = test system: HOP-62 NSCLC
MDA-MB-435 melanoma = test system: MDA-MB-435 melanoma
UO-31 renal = test system: UO-31 renal
NCI/ADR-RES ovarian = test system: NCI/ADR-RES ovarian
SK-MEL-2 melanoma = test system: SK-MEL-2 melanoma
HCT-116 colon = test system: HCT-116 colon
MALME-3M melanoma = test system: MALME-3M melanoma
LOX IMVI melanoma = test system: LOX IMVI melanoma
MDA-MB-468 breast = test system: MDA-MB-468 breast
OVCAR-3 ovarian = test system: OVCAR-3 ovarian
SW-620 colon = test system: SW-620 colon
NCI-H522 lung = test system: NCI-H522 lung
M14 melanoma = test system: M14 melanoma
SK-OV-3 ovarian = test system: SK-OV-3 ovarian
SNB-19 CNS = test system: SNB-19 CNS
HCC-2998 colon = test system: HCC-2998 colon
SF-539 CNS = test system: SF-539 CNS
HOP-92 NSCLC = test system: HOP-92 NSCLC
U251 glioblastoma = test system: U251 glioblastoma
HCT-15 colon = test system: HCT-15 colon
IGROV1 ovarian = test system: IGROV1 ovarian
BT-549 breast = test system: BT-549 breast
OVCAR-4 ovarian = test system: OVCAR-4 ovarian
NCI-H460 NSCLC = test system: NCI-H460 NSCLC
DU-145 prostate = test system: DU-145 prostate
K-562 leukemia = test system: K-562 leukemia
TK-10 renal = test system: TK-10 renal
MCF7 breast = test system: MCF7 breast
KM12 colon = test system: KM12 colon
T-47D breast = test system: T-47D breast
UACC-257 melanoma = test system: UACC-257 melanoma
A498 renal = test system: A498 renal
A549 NSCLC = test system: A549 NSCLC
MDA-MB-231 breast = test system: MDA-MB-231 breast
PC-3 prostate = test system: PC-3 prostate
ACHN renal = test system: ACHN renal
NCI-H226 lung = test system: NCI-H226 lung
OVCAR-8 ovarian = test system: OVCAR-8 ovarian
HL-60(TB) leukemia = test system: HL-60(TB) leukemia
NCI-H322M lung = test system: NCI-H322M lung
SF-268 CNS = test system: SF-268 CNS
SK-MEL-5 melanoma = test system: SK-MEL-5 melanoma
SN12C renal = test system: SN12C renal
SK-MEL-28 melanoma = test system: SK-MEL-28 melanoma
OVCAR-5 ovarian = test system: OVCAR-5 ovarian
CAKI-1 renal = test system: CAKI-1 renal
SR leukemia = test system: SR leukemia
RPMI-8226 leukemia = test system: RPMI-8226 leukemia
SF-295 CNS = test system: SF-295 CNS
NCI-H23 lung = test system: NCI-H23 lung
COLO 205 colon = test system: COLO 205 colon
CCRF-CEM leukemia = test system: CCRF-CEM leukemia
RXF 393 renal = test system: RXF 393 renal
MOLT-4 leukemia = test system: MOLT-4 leukemia
HT29 colon = test system: HT29 colon
786-0 renal = test system: 786-0 renal

With Cc1cc2c(C(=O)NC[C@H](C)c3ccccc3)c(O)c(O)cc2c(O)c1-c1c(C)cc2c(C(=O)NC[C@H](C)c3ccccc3)c(O)c(O)cc2c1O as the compound, how does the GI50 (UACC-62 melanoma) read?
Its GI50 is 0.486 µM.

And the TGI (UACC-62 melanoma)?
Its TGI is 1.63 µM.

What about the GI50 (HOP-62 NSCLC) of the same compound?
The GI50 was 0.666 µM.

What about the TGI (HOP-62 NSCLC) of the same compound?
The TGI was 2.09 µM.

And the GI50 (MDA-MB-435 melanoma)?
Its GI50 is 0.54 µM.

What about the TGI (MDA-MB-435 melanoma) of the same compound?
Its TGI is 2.7 µM.

What about the GI50 (UO-31 renal) of the same compound?
Its GI50 is 1.22 µM.

And the TGI (UO-31 renal)?
The TGI was 2.94 µM.

And the GI50 (NCI/ADR-RES ovarian)?
The GI50 was 2.15 µM.

What about the TGI (NCI/ADR-RES ovarian) of the same compound?
The TGI was 5.33 µM.

What about the GI50 (SK-MEL-2 melanoma) of the same compound?
Its GI50 is 0.24 µM.

And the TGI (SK-MEL-2 melanoma)?
Its TGI is 1.03 µM.

What about the GI50 (HCT-116 colon) of the same compound?
The GI50 was 0.274 µM.

And the TGI (HCT-116 colon)?
Its TGI is 0.685 µM.

And the GI50 (MALME-3M melanoma)?
The GI50 was 1.59 µM.

And the TGI (MALME-3M melanoma)?
The TGI was 4.43 µM.

What about the GI50 (LOX IMVI melanoma) of the same compound?
The GI50 was 1.74 µM.

What about the TGI (LOX IMVI melanoma) of the same compound?
The TGI was 3.27 µM.

What about the GI50 (MDA-MB-468 breast) of the same compound?
The GI50 was 0.187 µM.

What about the TGI (MDA-MB-468 breast) of the same compound?
The TGI was 0.374 µM.

What about the GI50 (OVCAR-3 ovarian) of the same compound?
Its GI50 is 0.613 µM.

What about the TGI (OVCAR-3 ovarian) of the same compound?
The TGI was 2.08 µM.

What about the GI50 (SW-620 colon) of the same compound?
The GI50 was 1.48 µM.

What about the TGI (SW-620 colon) of the same compound?
The TGI was 3.62 µM.

And the GI50 (NCI-H522 lung)?
Its GI50 is 0.207 µM.

And the TGI (NCI-H522 lung)?
Its TGI is 0.396 µM.

And the GI50 (M14 melanoma)?
The GI50 was 0.394 µM.

And the TGI (M14 melanoma)?
Its TGI is 1.36 µM.

And the GI50 (SK-OV-3 ovarian)?
Its GI50 is 1.5 µM.

And the TGI (SK-OV-3 ovarian)?
Its TGI is 3.9 µM.

And the GI50 (SNB-19 CNS)?
Its GI50 is 0.413 µM.

What about the TGI (SNB-19 CNS) of the same compound?
Its TGI is 1.44 µM.

What about the GI50 (HCC-2998 colon) of the same compound?
The GI50 was 1.38 µM.

And the TGI (HCC-2998 colon)?
The TGI was 3.2 µM.

What about the GI50 (SF-539 CNS) of the same compound?
The GI50 was 0.233 µM.

And the TGI (SF-539 CNS)?
The TGI was 0.579 µM.

What about the GI50 (HOP-92 NSCLC) of the same compound?
Its GI50 is 0.461 µM.

What about the TGI (HOP-92 NSCLC) of the same compound?
Its TGI is 1.56 µM.

What about the GI50 (U251 glioblastoma) of the same compound?
Its GI50 is 0.281 µM.

And the TGI (U251 glioblastoma)?
Its TGI is 0.723 µM.

And the GI50 (HCT-15 colon)?
The GI50 was 0.545 µM.

What about the TGI (HCT-15 colon) of the same compound?
The TGI was 2.88 µM.

And the GI50 (IGROV1 ovarian)?
Its GI50 is 0.495 µM.

And the TGI (IGROV1 ovarian)?
Its TGI is 2.92 µM.

And the GI50 (BT-549 breast)?
The GI50 was 0.243 µM.

And the TGI (BT-549 breast)?
The TGI was 0.582 µM.

What about the GI50 (OVCAR-4 ovarian) of the same compound?
The GI50 was 0.935 µM.

What about the TGI (OVCAR-4 ovarian) of the same compound?
Its TGI is 4.46 µM.

What about the GI50 (NCI-H460 NSCLC) of the same compound?
The GI50 was 0.204 µM.

What about the TGI (NCI-H460 NSCLC) of the same compound?
The TGI was 0.424 µM.

What about the GI50 (DU-145 prostate) of the same compound?
The GI50 was 0.382 µM.

What about the TGI (DU-145 prostate) of the same compound?
Its TGI is 1.98 µM.

What about the GI50 (K-562 leukemia) of the same compound?
Its GI50 is 0.328 µM.

What about the TGI (K-562 leukemia) of the same compound?
Its TGI is 1.21 µM.

And the GI50 (TK-10 renal)?
The GI50 was 1.28 µM.

And the TGI (TK-10 renal)?
The TGI was 7.08 µM.

And the GI50 (MCF7 breast)?
Its GI50 is 0.309 µM.

What about the TGI (MCF7 breast) of the same compound?
Its TGI is 1.18 µM.

What about the GI50 (KM12 colon) of the same compound?
Its GI50 is 0.39 µM.

And the TGI (KM12 colon)?
The TGI was 1.36 µM.

And the GI50 (T-47D breast)?
Its GI50 is 0.382 µM.

And the TGI (T-47D breast)?
The TGI was 1.59 µM.

What about the GI50 (UACC-257 melanoma) of the same compound?
The GI50 was 1.61 µM.

And the TGI (UACC-257 melanoma)?
Its TGI is 3.57 µM.

What about the GI50 (A498 renal) of the same compound?
Its GI50 is 0.286 µM.

And the TGI (A498 renal)?
The TGI was 0.818 µM.

And the GI50 (A549 NSCLC)?
The GI50 was 0.348 µM.

What about the TGI (A549 NSCLC) of the same compound?
The TGI was 1.39 µM.

What about the GI50 (MDA-MB-231 breast) of the same compound?
The GI50 was 0.654 µM.

And the TGI (MDA-MB-231 breast)?
The TGI was 2.39 µM.

What about the GI50 (PC-3 prostate) of the same compound?
The GI50 was 1.37 µM.

What about the TGI (PC-3 prostate) of the same compound?
The TGI was 2.75 µM.

What about the GI50 (ACHN renal) of the same compound?
Its GI50 is 1.84 µM.

What about the TGI (ACHN renal) of the same compound?
Its TGI is 4.04 µM.

And the GI50 (NCI-H226 lung)?
Its GI50 is 1.13 µM.

What about the TGI (NCI-H226 lung) of the same compound?
The TGI was 2.6 µM.

What about the GI50 (OVCAR-8 ovarian) of the same compound?
The GI50 was 1.12 µM.

What about the TGI (OVCAR-8 ovarian) of the same compound?
The TGI was 2.49 µM.

And the GI50 (HL-60(TB) leukemia)?
The GI50 was 0.487 µM.

And the TGI (HL-60(TB) leukemia)?
Its TGI is 1.39 µM.

What about the GI50 (NCI-H322M lung) of the same compound?
The GI50 was 1.76 µM.

What about the TGI (NCI-H322M lung) of the same compound?
Its TGI is 8.77 µM.

What about the GI50 (SF-268 CNS) of the same compound?
Its GI50 is 0.523 µM.

And the TGI (SF-268 CNS)?
The TGI was 1.81 µM.

What about the GI50 (SK-MEL-5 melanoma) of the same compound?
The GI50 was 0.378 µM.

What about the TGI (SK-MEL-5 melanoma) of the same compound?
The TGI was 1.58 µM.

What about the GI50 (SN12C renal) of the same compound?
Its GI50 is 0.837 µM.

And the TGI (SN12C renal)?
Its TGI is 2.3 µM.

What about the GI50 (SK-MEL-28 melanoma) of the same compound?
The GI50 was 0.606 µM.

What about the TGI (SK-MEL-28 melanoma) of the same compound?
The TGI was 2.4 µM.

What about the GI50 (OVCAR-5 ovarian) of the same compound?
Its GI50 is 0.558 µM.

And the TGI (OVCAR-5 ovarian)?
Its TGI is 1.98 µM.

And the GI50 (CAKI-1 renal)?
Its GI50 is 0.657 µM.

What about the TGI (CAKI-1 renal) of the same compound?
The TGI was 2.5 µM.

And the GI50 (SR leukemia)?
Its GI50 is 0.196 µM.

And the TGI (SR leukemia)?
Its TGI is 0.369 µM.

And the GI50 (RPMI-8226 leukemia)?
The GI50 was 0.238 µM.

What about the TGI (RPMI-8226 leukemia) of the same compound?
The TGI was 0.447 µM.

And the GI50 (SF-295 CNS)?
The GI50 was 0.345 µM.

And the TGI (SF-295 CNS)?
Its TGI is 1.12 µM.

And the GI50 (NCI-H23 lung)?
Its GI50 is 0.229 µM.

And the TGI (NCI-H23 lung)?
Its TGI is 0.448 µM.

What about the GI50 (COLO 205 colon) of the same compound?
Its GI50 is 1.94 µM.

What about the TGI (COLO 205 colon) of the same compound?
Its TGI is 4.29 µM.

And the GI50 (CCRF-CEM leukemia)?
Its GI50 is 0.243 µM.

And the TGI (CCRF-CEM leukemia)?
Its TGI is 0.514 µM.

And the GI50 (RXF 393 renal)?
The GI50 was 0.201 µM.

What about the TGI (RXF 393 renal) of the same compound?
The TGI was 0.625 µM.

What about the GI50 (MOLT-4 leukemia) of the same compound?
Its GI50 is 0.218 µM.

And the TGI (MOLT-4 leukemia)?
Its TGI is 0.404 µM.

What about the GI50 (HT29 colon) of the same compound?
Its GI50 is 1.23 µM.

And the TGI (HT29 colon)?
The TGI was 3.83 µM.

What about the GI50 ([…]-0 renal) of the same compound?
The GI50 was 1.17 µM.

What about the TGI (786-0 renal) of the same compound?
Its TGI is 2.8 µM.
